# Assay results reported in US9693942B2 (NESTEC S.A., priority 2012, dated 2017).
# Columns and labels:
# B16 murine melanocytes = experiment: Production of melanin by B16 murine melanocyte cell line; type: cell-based; conditions: kojic acid 400 μg/mL, 72 hours, B16 cells, total melanin (extracellular and intracellular), OD 405 nm
# Procedure: B16 cells were cultured in DMEM 1 g/L glucose without phenol red supplemented with 10% foetal calf serum, in a humidified chamber at 37° C. and containing 5% CO2. […] This was performed in the presence or absence of NDP-MSH, an analog of MSH (melanocyte-stimulating hormone). The total quantity of melanin (extracellular and intracellular) was evaluated by measuring the optical density at 405 nm of each sample against melanin standards in the presence or absence of NDP-MSH. The control condition corresponds to a culture of B16 murine melanocytes treated just with the medium, no other compound being added.
# tyrosinase = experiment: Production of tyrosinase by B16 murine melanocyte cell line (immunolabeling); type: cell-based; conditions: kojic acid 400 μg/mL, 48 hours, B16 cells
# Procedure: B16 cells were cultured in DMEM 1 g/L glucose without phenol red supplemented with 10% foetal calf serum, in a humidified chamber at 37° C. and containing 5% CO2. […] The production of tyrosinase was evaluated by immunolabeling. The control condition corresponds to a culture of B16 murine melanocytes treated just with the medium, no other compound being added.
compound,measurement,setting,value
O=c1cc(CO)occ1O [kojic acid],"melanin production, percentage relative to the control",B16 murine melanocytes,48%
same,production of tyrosinase relative to the control,tyrosinase,decreased
